What was measured:
Mammary MCF-7 = assay: Tumor models examined with NM404 (Table 2); assay type: in vivo, Rat; conditions: Adenocarcinoma
Text: (§1) NM404 has now been evaluated in 27 animal tumor models, including several lung, and it is clear that once the agent enters tumor cells, it reaches a metabolic dead end and becomes trapped. […] NM404 is also retained in spontaneous murine lung tumors (FIG. 13). Using ^125I-labeled NM404, the inventors have been able to image mammary and prostate tumors in mice in excess of 60 days. […] Imaging and tissue distribution studies performed in mouse models aimed at determining the uptake characteristics in a wide variety of tumor models are summarized in Table 2.
(§2) Although tumor retention can be explained by a lack of metabolic phospholipase enzymes in the tumor cell membranes, the exact mechanism of tumor cell uptake is unknown. […] The inventors are currently evaluating the selectivity of NM404 in a unique mouse tumor model developed at Wisconsin, wherein both preneoplastic hyperplasias and malignant adenocarcinomas form spontaneously in the mammary gland. […] If this initial observation is validated, then via genomic and or proteomic analysis the inventors may be able to identify a key genetic difference between malignant tumors and their non malignant predecessor cells. This could identify a completely new molecular therapeutic target that may be universal for all types of cancer.

Prostate MatLyLu = assay: Tumor models examined with NM404 (Table 2); assay type: in vivo, Rat; conditions: Adenocarcinoma
Text: as §1, §2

Walker-256 = assay: Tumor models examined with NM404 (Table 2); assay type: in vivo, Rat; conditions: Carcinosarcoma
Text: as §1, §2

[1] = MIRD extrapolation of rat tissue distribution data to permissible human dose; design: species or system human (from rat data)
Text: Accordingly the inventors have conducted the preliminary pharmacokinetic studies in human lung cancer patients at 1 mCi. Similar extrapolative calculation of the dosimetry for ^124I-NM404 afforded a similar 2 mCi dose level again based on projected dosimetry to the adrenals and bladder wall. Preliminary human data (5 patients), however, indicate very little uptake and retention of the agent into any abdominal organ (including the bladder and adrenals) with the exception of the liver which returns to background levels within 11 days.
Dosing of radioiodinated ^124I NM404 will be based on MIRD extrapolation of the iodine-131 dosimetry data derived from this ongoing study. The ^131I-NM404 dose is currently calculated as follows: Animal biodistribution data is used to determine the percentage of injected dose/organ at varying time points. These animal data are extrapolated to man by means of MIRD formalism (MIRDOSE PC v3.1) using standard conversion factors for differences in organ mass and anatomy between rat and standard man, providing predicted human organ doses; Based on these predicted doses, the permissible mCi dose to be injected into humans is determined using the maximal doses legally permitted by RDRC regulations for specific human tissue as defined in the Federal Register (21CFR Part 361.1) e.g. whole body, blood, blood forming tissues, eye lens, gonads—3 rem/dose; any other tissue—5 rem/dose. This approach was previously used to bring both NM324 and NM404 to clinical use, resulting in a calculated dose of 1 mCi.

[2] = tested on: Walker-256 carcinosarcoma; assay: Tissue distribution of radioactivity in rats bearing Walker-256 carcinosarcoma; assay type: in vivo, rat

For `C[N+](C)(C)CCOP(=O)([O-])OCCCCCCCCCCCCCCCCCCc1ccc(I)cc1` [NM-404, 18-(4-iodophenyl)-octadecylphosphocholine], the “NM404 Tumor Localization” value (Mammary MCF-7) was “Yes (Localization defined as >5% injected dose per gram tumor basis based on tissue distribution data)”, the “NM404 Tumor Localization” value (Prostate MatLyLu) was “Yes (Localization defined as >5% injected dose per gram tumor basis based on tissue distribution data)” and the “NM404 Tumor Localization” value (Walker-256) was “Yes (Localization defined as >5% injected dose per gram tumor basis based on tissue distribution data)”. The “calculated dose for clinical use” value [1] was 1 mCi, the “5 rad dose to adrenals” value ([1]; new animal data) was 2.2 mCi and the “5 rad testes dose” value ([1]; new animal data) was 2.1 mCi. For the same compound, the “radioactivity in the tumor (peak)” value ([2]; 48 hours after administration) was 1.14±0.01 % of ID/g, the blood levels ([2]; 120 hours) was 0.6±0.1 % of ID/g and the “time of peak tumor radioactivity” value ([2]; after administration) was 48 h.

From patent US9579406B2, “Phospholipid ether analogs as agents for detecting and locating cancer, and methods thereof” (Cellectar, Inc., priority 2004, dated 2017)
